Results on 46 compounds are retold here after patent publication US10227329B2, “Compounds useful for treating disorders related to RET” (BLUEPRINT MEDICINES CORPORATION, priority 2016, dated 2019).

The target in one test is wild type RET (Homo sapiens (Human), UniProt P07949). Kind of test: RET Wild Type Assay at KM (Caliper electrophoretic mobility shift). The test is classed as biochemical. As to conditions: 25 μM ATP (KM).
A further test has as its target RET V804L (Homo sapiens (Human), UniProt P07949, V804L). Kind of test: RET V804L Gatekeeper Mutant Assay at KM (Caliper electrophoretic mobility shift). As to conditions: 10 μM ATP (KM), read-out: V480L Mutant. The test is classed as biochemical.

Chain of wild type RET (P07949 29-1114): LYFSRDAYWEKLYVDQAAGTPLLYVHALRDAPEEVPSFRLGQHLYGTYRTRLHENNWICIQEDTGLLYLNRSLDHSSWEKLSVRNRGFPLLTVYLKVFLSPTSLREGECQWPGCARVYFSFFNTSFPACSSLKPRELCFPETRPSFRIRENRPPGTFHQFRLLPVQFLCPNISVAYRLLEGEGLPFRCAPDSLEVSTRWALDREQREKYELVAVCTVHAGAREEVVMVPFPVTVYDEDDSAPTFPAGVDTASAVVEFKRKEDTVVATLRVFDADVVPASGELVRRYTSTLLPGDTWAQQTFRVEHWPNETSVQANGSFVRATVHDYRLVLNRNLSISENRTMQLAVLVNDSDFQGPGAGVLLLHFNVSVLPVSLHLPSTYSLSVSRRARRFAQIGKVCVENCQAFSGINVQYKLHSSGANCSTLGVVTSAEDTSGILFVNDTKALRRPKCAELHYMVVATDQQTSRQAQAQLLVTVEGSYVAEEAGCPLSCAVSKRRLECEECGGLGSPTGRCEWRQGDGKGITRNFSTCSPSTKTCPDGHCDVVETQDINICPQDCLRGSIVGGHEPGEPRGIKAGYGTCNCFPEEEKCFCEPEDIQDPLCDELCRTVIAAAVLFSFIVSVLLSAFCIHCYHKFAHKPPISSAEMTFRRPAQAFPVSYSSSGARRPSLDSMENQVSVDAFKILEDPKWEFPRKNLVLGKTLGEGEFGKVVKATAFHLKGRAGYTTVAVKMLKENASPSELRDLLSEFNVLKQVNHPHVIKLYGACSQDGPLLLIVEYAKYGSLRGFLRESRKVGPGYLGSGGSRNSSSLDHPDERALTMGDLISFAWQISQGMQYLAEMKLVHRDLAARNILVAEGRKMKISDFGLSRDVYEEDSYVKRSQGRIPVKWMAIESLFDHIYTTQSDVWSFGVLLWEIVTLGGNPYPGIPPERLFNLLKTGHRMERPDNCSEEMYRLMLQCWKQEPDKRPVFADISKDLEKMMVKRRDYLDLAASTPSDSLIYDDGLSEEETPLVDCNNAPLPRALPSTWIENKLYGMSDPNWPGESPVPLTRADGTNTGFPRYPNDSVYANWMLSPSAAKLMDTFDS
Chain of RET V804L (P07949 29-1114 V804L): as the sequence (P07949 29-1114) above, with V776L counted along it

Take `Cc1cc(Nc2cc(C)[nH]n2)nc(N2CCC(O)(C(=O)NCc3ccc(-n4cccn4)nc3)CC2)n1` [Compound 136, N-((6-(1H-pyrazol-1-yl)pyridin-3-yl)methyl)-4-hydroxy-1-(4-methyl-6-(3-methyl-1H-pyrazol-5-ylamino)pyrimidin-2-yl)piperidine-4-carboxamide]: the IC50 on wild type RET and at RET V804L was under 10 nM each time.

For `CCC1(C(=O)N[C@@H](C)c2ccc(-n3cccn3)nc2)CN(c2nc(C)cc(Nc3cc(C)[nH]n3)n2)C1` [Compound 130], the IC50 at wild type RET and at RET V804L was under 10 nM each time.

As for `CCOc1ccc(CNC(=O)C2(O)CCN(c3nc(C)cc(Nc4cc(C)[nH]n4)n3)CC2)cc1` [Compound 115], the IC50 on wild type RET and at RET V804L was 10 to 100 nM each time.

Turning to `COC1(C(=O)N[C@@H](C)c2ccc(-n3cccn3)nc2)CCN(c2nc(C)cc(Nc3cc(C)[nH]n3)n2)CC1` [Compound 186], the IC50 at wild type RET and at RET V804L was under 10 nM each time.

In the case of `Cc1cc(Nc2cc(C)[nH]n2)nc(N2CC(F)(C(=O)NCc3ccc(-n4cc(F)cn4)nc3)C2)n1` [Compound 124], the IC50 on wild type RET and at RET V804L was under 10 nM throughout.

Regarding `Cc1cc(Nc2cc(C)c(F)c(N3CC(C(=O)N[C@@H](C)c4ccc(-n5cc(F)cn5)nc4)C3)n2)n[nH]1` [Compound 152], the IC50 at wild type RET and at RET V804L was under 10 nM in each case.

As for `COC1(C(=O)N[C@@H](C)c2ccc(-n3cc(F)cn3)nc2)CN(c2nccc(Nc3cc(C)[nH]n3)n2)C1` [Compound 149], the IC50 at wild type RET and at RET V804L was under 10 nM each time.

In the case of `COC1(C(=O)N[C@@H](C)c2ccc(-n3cc(F)cn3)nc2)CCN(c2cc(C)cc(Nc3cc(C)[nH]n3)n2)CC1` [Compound 216], the IC50 on wild type RET and on RET V804L was under 10 nM each time.

Consider `COC1(C(=O)NCc2ccc(-n3nc(C)cc3C)nc2)CCN(c2cc(C)cc(Nc3cc(C)[nH]n3)n2)CC1` [Compound 211], for which the IC50 at wild type RET and on RET V804L was under 10 nM each time.

As to `COC1(C(=O)N[C@@H](C)c2ccc(-n3cc(F)cn3)nc2)CN(c2nc(Nc3cc(C)[nH]n3)cc(C)c2F)C1` [Compound 202], the IC50 at wild type RET and on RET V804L was under 10 nM throughout.

For `Cc1cc(Nc2cc(C)c(C#N)c(N3CC(F)(C(=O)N[C@@H](C)c4ccc(-n5cccn5)nc4)C3)n2)n[nH]1` [Compound 157], the IC50 at wild type RET and at RET V804L was under 10 nM each time.

For `Cc1cc(Nc2cc(C)[nH]n2)nc(N2CC(C)(C(=O)NCc3ccc(-n4cccn4)nc3)C2)c1` [Compound 107, N-((6-(1H-pyrazol-1-yl)pyridin-3-yl)methyl)-3-methyl-1-(4-methyl-6-((5-methyl-1H-pyrazol-3-yl)amino)pyridin-2-yl)azetidine-3-carboxamide], the IC50 on wild type RET and at RET V804L was under 10 nM throughout.

With `Cc1cc(Nc2cc(C(F)F)cc(N3CC(F)(C(=O)N[C@@H](C)c4ccc(-n5cc(F)cn5)nc4)C3)n2)n[nH]1` [Compound 210], the IC50 on wild type RET and at RET V804L was under 10 nM throughout.

For the compound `Cc1cc(Nc2cc(C)[nH]n2)nc(N2CC(C)(C(=O)N[C@@H](C)c3ccc(-n4cccn4)nc3)C2)c1` [Compound 117], the IC50 at wild type RET and on RET V804L was under 10 nM each time.

Consider `Cc1cc(Nc2cc(C)[nH]n2)nc(N2CCC(C)(C(=O)NCc3ccc(-n4cccn4)nc3)CC2)n1` [Compound 129], for which the IC50 at wild type RET and on RET V804L was under 10 nM in each case.

Turning to `COC1(C(=O)N[C@@H](C)c2cnc(-n3cc(F)cn3)cn2)CCN(c2nc(C)cc(Nc3cc(C)[nH]n3)n2)CC1` [Compound 221], the IC50 on wild type RET and on RET V804L was under 10 nM each time.

In the case of `Cc1cc(Nc2cc(C)[nH]n2)nc(N2CC(C(=O)N[C@@H](C)c3ccc(-n4cc(F)cn4)nc3)C2)n1` [Compound 121], the IC50 at wild type RET and at RET V804L was under 10 nM each time.

On to `CO[C@@]1(C(=O)N[C@@H](C)c2ccc(-n3cc(F)cn3)nc2)CN(c2nc(C)cc(Nc3cc(C)[nH]n3)n2)[C@@H]1C` [Compound 198], for which the IC50 at wild type RET and on RET V804L was under 10 nM in each case.

With `Cc1cc(N2CCC(CC#N)(C(=O)N[C@@H](C)c3ccc(-n4cc(F)cn4)nc3)CC2)nc(Nc2cc(C)[nH]n2)n1` [Compound 224], the IC50 on wild type RET and at RET V804L was under 10 nM throughout.

Consider `CCC1(C(=O)NCc2ccc(-n3cc(F)cn3)nc2)CCN(c2nc(C)cc(Nc3cc(C)[nH]n3)n2)CC1` [Compound 190], for which the IC50 at wild type RET and at RET V804L was under 10 nM each time.

Regarding `Cc1cc(Nc2cc(C)[nH]n2)nc(N2CCC(OCC(F)(F)F)(C(=O)NCc3ccc(-n4cccn4)nc3)CC2)n1` [Compound 228], the IC50 at wild type RET and at RET V804L was under 10 nM each time.

Take `Cc1cc(Nc2cc(C)[nH]n2)nc(N2CCC(O)(C(=O)NCc3ccccc3)CC2)c1` [Compound 102]: the IC50 was over 100 nM on wild type RET and 10 to 100 nM at RET V804L.

`CCC1(C(=O)NCc2ccc(-n3cccn3)nc2)CCN(c2nc(C)cc(Nc3cc(C)[nH]n3)n2)CC1` [Compound 158]: the IC50 at wild type RET and on RET V804L was under 10 nM in each case.

Consider `COC1(C(=O)NCc2ccc(-n3cc(C(F)F)cn3)nc2)CN(c2nc(C)cc(Nc3cc(C)[nH]n3)n2)C1` [Compound 203], for which the IC50 on wild type RET and at RET V804L was 10 to 100 nM in each case.

As to `COC1(C(=O)NCc2ccc(-n3cccn3)nc2)CN(c2nc(Nc3cc(C)[nH]n3)cc(C)c2F)C1` [Compound 146], the IC50 at wild type RET and on RET V804L was under 10 nM each time.

In the case of `Cc1cc(Nc2cc(C)[nH]n2)nc(N2CCC(C)(C(=O)NCc3ccc(-n4cccn4)nc3)CC2)c1` [Compound 127], the IC50 at wild type RET and on RET V804L was under 10 nM each time.

As for `COc1ccc([C@H](C)NC(=O)C2(O)CCN(c3nc(C)cc(Nc4cc(C)[nH]n4)n3)CC2)cc1` [Compound 116], the IC50 at wild type RET is over 100 nM; at RET V804L, 10 to 100 nM.

With `COC1(C(=O)N[C@@H](C)c2ccc(-n3cc(F)cn3)nc2)CN(c2cc(C(F)F)cc(Nc3cc(C)[nH]n3)n2)C1` [Compound 223], the IC50 on wild type RET and on RET V804L was under 10 nM in each case.

In the case of `Cc1cc(Nc2cc(C)[nH]n2)nc(N2CCC(O)(C(=O)N(C)[C@@H](C)c3ccc(-n4cccn4)nc3)CC2)n1` [Compound 187], the IC50 on wild type RET and at RET V804L was under 10 nM in each case.

As for `Cc1cc(Nc2cc(C)[nH]n2)nc(N2C[C@@H](C(=O)N[C@@H](C)c3ccc(-n4cc(F)cn4)nc3)[C@@H]2C)n1` [Compound 143], the IC50 at wild type RET and at RET V804L was under 10 nM each time.

For `Cc1cc(Nc2cc(C)[nH]n2)nc(N2CC(F)(C(=O)N[C@@H](C)c3ccc(-n4cc(F)cn4)nc3)C2)c1` [Compound 151], the IC50 at wild type RET and on RET V804L was under 10 nM each time.

Take `Cc1cc(Nc2cc(C)[nH]n2)nc(N2CC(C(=O)N(C)[C@@H](C)c3ccc(-n4cc(F)cn4)nc3)C2)n1` [Compound 142]: the IC50 on wild type RET and on RET V804L was under 10 nM each time.

As for `Cc1cc(Nc2cc(C)[nH]n2)nc(N2CC(C)(C(=O)NCc3ccc(-n4cc(F)cn4)nc3)C2)c1` [Compound 120], the IC50 at wild type RET and on RET V804L was under 10 nM throughout.

`CCOc1ccc(CNC(=O)C2(O)CCN(c3cc(C)cc(Nc4cc(C)[nH]n4)n3)CC2)cc1` [Compound 113]: the IC50 is 10 to 100 nM at wild type RET and under 10 nM on RET V804L.

`COC1(C(=O)N[C@@H](C)c2ccc(-n3cccn3)nc2)CN(c2cc(C(F)F)cc(Nc3cc(C)[nH]n3)n2)C1` [Compound 201]: the IC50 at wild type RET and at RET V804L was under 10 nM in each case.

`COC1(C(=O)NCc2ccc(-n3cc(F)cn3)nn2)CN(c2nc(C)cc(Nc3cc(C)[nH]n3)n2)C1` [Compound 150]: the IC50 on wild type RET and on RET V804L was 10 to 100 nM throughout.

In the case of `COC1(C(=O)NCc2ccc(-n3cc(F)cn3)nc2)CCN(c2nc(Nc3cc(C)[nH]n3)cc(C)c2C#N)CC1` [Compound 226], the IC50 at wild type RET and at RET V804L was under 10 nM in each case.

On to `Cc1cc(Nc2cc(C)[nH]n2)nc(N2CCC(F)(C(=O)N[C@@H](C)c3ccc(-n4cc(F)cn4)nc3)CC2)c1` [Compound 200], for which the IC50 at wild type RET and at RET V804L was under 10 nM throughout.

`CCC1(C(=O)N[C@@H](C)c2ccc(-n3cc(F)cn3)nc2)CN(c2nc(C)cc(Nc3cc(C)[nH]n3)n2)C1` [Compound 166, (S)-3-ethyl-N-(1-(6-(4-fluoro-1H-pyrazol-1-yl)pyridin-3-yl)ethyl)-1-(4-methyl-6-((5-methyl-1H-pyrazol-3-yl)amino)pyrimidin-2-yl)azetidine-3-carboxamide]: the IC50 at wild type RET and on RET V804L was under 10 nM in each case.

Turning to `Cc1cc(Nc2cc(C)[nH]n2)nc(N2CC(O)(C(=O)N[C@@H](C)c3ccc(-n4cc(F)cn4)nc3)C2)c1` [Compound 145], the IC50 at wild type RET and at RET V804L was under 10 nM in each case.

Take `Cc1cc(Nc2cc(C)[nH]n2)nc(N2CC(C(=O)N[C@@H](C)c3ccc(-n4cc(F)cn4)nc3)C2)c1` [Compound 119]: the IC50 at wild type RET and at RET V804L was under 10 nM each time.

`COC1(C(=O)N[C@@H](C)c2ccc(-n3cccn3)nc2)CCN(c2nc(Nc3cc(C)[nH]n3)cc(C)c2C#N)CC1` [Compound 222]: the IC50 on wild type RET and at RET V804L was under 10 nM in each case.

For the compound `COC1(C(=O)N[C@@H](C)c2ccc(-n3cccn3)nc2)CCN(c2cc(C)cc(Nc3cc(C)[nH]n3)n2)CC1` [Compound 181], the IC50 at wild type RET and at RET V804L was under 10 nM in each case.

Regarding `COC1(C(=O)NCc2ccc(-n3ccc(C4CC4)n3)nc2)CN(c2cc(C)cc(Nc3cc(C)[nH]n3)n2)C1` [Compound 177], the IC50 on wild type RET and at RET V804L was under 10 nM each time.

Consider `COc1ccc(CNC(=O)C2(O)CCN(c3cc(C)cc(Nc4cc(C)[nH]n4)n3)CC2)cc1` [Compound 105], for which the IC50 at wild type RET and at RET V804L was 10 to 100 nM throughout.

Consider `COC1(C(=O)NCc2ccc(-n3cc(F)cn3)nc2)CN(c2nc(C)cc(Nc3cc(C)[nH]n3)n2)C1` [Compound 148], for which the IC50 on wild type RET and at RET V804L was under 10 nM in each case.
